Patent US10357431B2, “Process for the preparation of a pharmaceutical composition comprising a low soluble pharmaceutically active ingredient” (Lek Pharmaceuticals d.d., priority 2010, dated 2019)
Where two headings read alike, the source gives them in different places.

What was measured:
[1] = Particle size distribution of ezetimibe (laser diffraction, e.g. Malvern); format: physicochemical
Source text: In a particularly exemplified embodiment according to the present invention, the particle size distribution d(0.5) that is present after step (b) and prior to step (c), after step (c) and prior to step (d), and/or after step (d), corresponds essentially to or is smaller than the primary particle size distribution d(0.5) of the API that is used for providing the suspension of step (a). This (further) contributes to a further improved pharmaceutical composition or dosage form, respectively, as e.g. the dissolution profile and controllability are further enhanced. In general, the particle size distribution of a powder, or granular material, or particles e.g. dispersed in fluid, is a list of values or a mathematical function that defines the relative amounts of particles present, sorted according to size. The nomenclature describing the particle size distribution is herein referred to as “d(0.5)”. For example, a d(0.5) of 5 μm means that 50% (by volume) of the particles have a size less than or equal to 5 μm, as tested by any conventional method such as laser diffraction method (e.g. laser diffraction Malvern). When measuring the particle size distribution by laser diffraction Malvern, an appropriate amount of sample (usually a few drops of suspension) is put into a gently mixing chamber filled with water. From this chamber, the sample continuously flows through a measuring chamber and the particle size distribution is determined by laser diffraction. Within the meaning of the present invention, the term “particle size distribution d(0.5) corresponds essentially to or is smaller than” denotes that (i) the particle size distribution d(0.5) of the primary particles when measured after deagglomeration, i.e. after the high energy input treatment has been applied to the suspension containing the API particles, essentially corresponds to the particle size distribution d(0.5) of the primary particles that were used for providing the suspension of step (a); or (ii), alternatively, it denotes that the particle size distribution d(0.5) when measured after deagglomeration is smaller than the particle size distribution d(0.5) of the primary particles that were used for providing the suspension of step (a).
The particle size distribution d(0.5) of the primary API particles used for providing the suspension of step (a) in (A), (B) and (C) can be assessed by any method that is known to a person skilled in the art, such as by using laser diffraction method (e.g. Malvern Mastersizer, see above). As described elsewhere herein, said primary API particles may be present deagglomerated, however said particles may also be present in an agglomerated state. In the latter case, it is also possible to determine the particle size distribution d(0.5) by laser diffraction. If appropriate, it is preferred that the method for carrying out the first measurement corresponds to the method used for carrying out the second measurement.
The method according to the present invention is particularly useful for processing API particles having a particle size distribution d(0.5) that is relatively small, e.g. a particle size distribution d(0.5) where agglomeration is generated (critical particle size/particle size distribution). The critical particle size/particle size distribution for a selected API is known to a person skilled in the art. Further, said size/size distribution can be determined by any suitable method that is known to a person skilled in the art, such as by using SEM or laser diffraction. Usually SEM or more preferably disintegrated tablet suspension is recorded under a visual microscope and is processed with particle recognition software to obtain an estimation of particle size distribution. On SEM pictures, eventually occurring agglomerates are also visible. When using laser diffraction, a suspension of the API is transferred to the dispersing chamber containing water. […]

[2] = cited from earlier work
[3] = Example 3, Table 1, particle size after deagglomeration (suspension passed through ball mill)
[4] = Example 3, Table 1, starting particle size
[5] = Example 4, Table 2, particle size after deagglomeration (high energy rotor-stator mixer)
[6] = Example 4, Table 2, starting particle size
[7] = Example 6, Table 3, particle size after milling (rotor-stator mixer, then ball mill)
[8] = Example 6, Table 3, starting particle size
[9] = Example 7, Table 4, particle size after milling (rotor-stator mixer, then ball mill)
[10] = Example 7, Table 4, starting particle size

size below which 50% of micronized ezetimibe particles were ([1]; Comparative Example 5, micronized starting ezetimibe): 3.9 micrometers
D(0.1) [1, 3]: 0.84 μm
D(0.5) [1, 3]: 2.98 μm
D(0.9) [1, 3]: 6.28 μm
D(0.1) [1, 4]: 0.30 μm
D(0.5) [1, 4]: 2.97 μm
D(0.9) [1, 4]: 6.87 μm
change of particle size distribution d(0.5) ([1]; Example 3, suspension passed through a ball mill): remained essentially unchanged
D(0.1) [1, 5]: 0.83 μm
D(0.5) [1, 5]: 2.54 μm
D(0.9) [1, 5]: 5.03 μm
D(0.1) [1, 6]: 0.30 μm
D(0.5) [1, 6]: 2.97 μm
D(0.9) [1, 6]: 6.87 μm
change of particle size distribution d(0.5) ([1]; Example 4, suspension mixed with high energy rotor-stator mixer): remained unchanged
D(0.1) [1, 7]: 0.24 μm
D(0.5) [1, 7]: 1.11 μm
D(0.9) [1, 7]: 4.35 μm
D(0.1) [1, 8]: 0.82 μm
D(0.5) [1, 8]: 3.29 μm
D(0.9) [1, 8]: 6.49 μm
D(0.1) [1, 9]: 0.63 μm
D(0.5) [1, 9]: 1.99 μm
D(0.9) [1, 9]: 5.49 μm
D(0.1) [1, 10]: 0.83 μm
D(0.5) [1, 10]: 2.76 μm
D(0.9) [1, 10]: 5.19 μm
Compound: O=C1[C@H](CC[C@H](O)c2ccc(F)cc2)[C@@H](c2ccc(O)cc2)N1c1ccc(F)cc1 [ezetimibe]
solubility ([2]; in ethanol, methanol, and acetone): freely to very soluble
solubility ([2]; in water): particularly poorly soluble
